# “Also recorded” adds a separate entry of the source. Where two headings read alike, the source gives them in different places.
# Tests used:
# NKAα1 = molecular target: T1, NKAα1 (Rattus norvegicus, UniProt P06685); assay: Na,K-ATPase activity assay, α1β1 expressed in Sf9 insect cells; type: biochemical; details: read-out: NKA Isoform Specificity (IC50 M) NKAα1
# T1 construct: made in house; host or cells: Sf9 insect cells (baculovirus infection), cell homogenates
# Protocol: The NKA α1 and α4 isoforms were expressed in Sf9 insect cells as previously described. Briefly, cells were cultured in suspension at 27 °C in Grace’s medium (JRH Biosciences, Lenexa, KS, USA) with 3.3 g/L of lactalbumin hydrolysate and 3.3 g/L of yeastolate and supplemented with 10% (v/v) fetal bovine serum, 100 units/mL of penicillin, 100 μg/mL of streptomycin, and 0.25 μg/mL of fungizone. For infections, cells were placed on 150 mm Petri dishes and infected with baculoviruses coding for the NKA α1β1 and α4β1 isozymes. Three days after infection, cells were scraped from the culture plates, centrifuged at 1500× g for 10 min, and washed twice in 10 mM imidazole hydrochloride (pH 7.5) and 1 mM EGTA (suspension buffer). Cells were then placed in a suspension buffer plus the addition of 0.32 M sucrose and stored at −20 °C or directly used for assays.
# The Na,K-ATPase activity of insect cell homogenates was determined by measuring the initial rate of release of ^32Pi from γ[^32P]-ATP as described. […] Enzymatic activity was determined as the difference in ATP hydrolysis in the absence and presence of 1 mM ouabain.
# Figure 6 Selectivity of 13 and 45 on NKAα4 over the NKAα1 isoform. […] The hydrolysis of ATP in the presence of saturating concentrations of Na^+, K^+, and Mg^2+ was measured using γ[^32P]-ATP. […]
# mouse sperm = assay: Mouse sperm total motility in vitro (CASA); type: cell-based; details: for Emax: Mus musculus, Sperm, 1 h, nanomolar range concentration, read-out: Maximal Motility Inhibition (%)
# Protocol: To characterize the SAR of these compounds, we first evaluated their effects on total sperm motility in vitro. Sperm isolated from the cauda epididymis of mice were incubated with the test compounds in modified Whitten’s medium under non-capacitating conditions. Motility was assessed using a computer-assisted sperm analysis (CASA) system.
# All experimental protocols involving animals used in this work were approved by the University of Kansas Medical Center Institutional Animal Care and Use Committee (ACUP number: 22-09-26, 10/2022). C57BL/6 mice were purchased from Harlan (Indianapolis, IN, USA). Spermatozoa were isolated from the cauda of adult mouse epididymis in Whitten’s medium, containing 100 mM NaCl, 4.7 mM KCl, 1.2 mM KH2PO4, 1.2 mM MgSO4, 5.5 mM glucose, 0.8 mM pyruvic acid, 4.8 mM lactic acid, and 40 mM Hepes, as previously described.
# Spermatozoa (1 × 10^6 cells) were incubated at 37 °C in 100 μL of Whitten’s medium, with the addition of 1.7 mM CaCl2 and in the absence and presence of different amounts of the tested compounds for 60 min. Then, cells were labeled with the fluorescent nucleic acid stain SYTO 21, which allows for the tracking of the movement of the cell head. After 1 min of incubation with the dye, 5.5 μL aliquots from each sample were taken and placed into a glass cell chamber (Leja Products B.V., Nieuw-Vennep, The Netherlands). Sperm were maintained at 37 °C on a heated platform and viewed with an Olympus BX51 microscope (Olympus, Center Valley, PA, USA) through a 20× phase objective. Images of the moving sperm were captured using a CCD camera. Samples were analyzed by CASA using the Minitube SpermVision Digital Semen Evaluation system (version 3.5; Penetrating Innovations, Verona, WI, USA). An average of 200 cells/field were captured, at a rate of 30 frames per field, and a total of 10 fields in each sample were analyzed. Total sperm motility was obtained from sperm maintained in a non-capacitating medium, while for assessing the hyperactive pattern of motility, typical of sperm capacitation, cells were incubated in Whitten’s medium with the addition of 1.7 mM CaCl2, 25 mM sodium bicarbonate, and 0.5% bovine serum albumin.
# (§1) Figure 2 Effect of simplified steroidal analogs on mouse sperm total motility. Sperm was isolated from the cauda epididymis and treated in the absence and presence of the indicated concentrations of each compound. After one hour of incubation, sperm motility was determined by CASA. Values are expressed as the mean ± SEM of three determinations.
# as §1, with “4” for “2”, “non-steroidal small compounds” for “simplified steroidal analogs”, “1 h” for “one hour”
# mouse epididymal sperm = assay: Reversibility of effect on sperm motility after washing; type: cell-based; details: after washing the cells with fresh medium
# Protocol: An important goal for the development of agents to be used for contraception is to assess the reversibility of their effect on sperm. To achieve this, we treated mouse sperm in the absence and presence of either 13 or 45 and measured epididymal sperm motility before and after washing the cells with fresh medium.
# Mouse epididymal sperm were treated in the absence or presence of compounds 13 or 45 for one hour in Whitten’s medium. After an initial measurement of sperm motility using CASA, the sperm was washed by centrifugating the sample at 300× g for 3 min and resuspension in fresh Whitten’s medium. Then, sperm motility was determined again using CASA for the different times and for up to 180 min.
# Figure 7 Reversibility of the effect of compounds 13 and 45. Mouse epididymal sperm were treated in the absence (untreated control) or presence of 13 (A) or 45 (B) for one hour. Then, the sperm was washed, and motility was measured before and after washing the cells using CASA. Sperm movement was followed during the indicated times. Values are expressed as the mean ± SEM of three determinations. Samples treated with 13 and 45 were statistically different from the untreated controls, with p < 0.05.
# [1] = simplified steroid analogs, mouse sperm motility
SMILES,IC50 (NKAα1),"Emax (mouse sperm; simplified steroid analogs, mouse sperm total motility)",Shape of inhibitory dose response on sperm motility (mouse sperm; mouse sperm total motility),IC50 (mouse sperm; [1]),IC50 (pM) (mouse sperm; [1]),Reversibility of effect on sperm motility (mouse epididymal sperm),"Emax (mouse sperm; non-steroidal small molecules, mouse sperm total motility)","IC50 (mouse sperm; non-steroidal small molecules, mouse sperm motility)"
"C[C@]12CC[C@H]3[C@@H](CC=C4C[C@@H](O)CC[C@@]43C)[C@@H]1CC[C@@H]2c1cn(Cc2ccccc2)nn1 [Compound 13, (3S,8S,9S,10R,13S,14S,17S)-17-(1-Benzyl-1H-1,2,3-triazol-4-yl)-10,13-dimethyl-2,3,4,7,8,9,10,11,12,13,14,15,16,17-tetradecahydro-1H-cyclopenta[a]phenanthren-3-ol]",> 100000 nM,41%,monotonic inhibitory response,0.024 nM,sub-nanomolar range,maintained over time; also recorded: not reversible,,
"CC12CCC(=O)C=C1CCCC2n1cc(-c2ccccc2)nn1 (stereo not shown) [Compound 45, 4a-Methyl-5-(4-phenyl-1H-1,2,3-triazol-1-yl)-4,4a,5,6,7,8-hexahydronaphthalen-2(3H)-one]",> 100000 nM,,,,,maintained over time; also recorded: not reversible,~50%,0.048 nM
